In patent US5143906A, “Kedarcidin antitumor chromophore and pharmaceutical composition containing same” (Bristol-Myers Squibb Company, priority 1991, dated 1992):
≈ marks a conversion by molar mass, not a printed value.

Columns and labels:
[1] = test system: iv implanted P388 leukemia; assay: Antitumor activity against iv implanted P388 leukemia; assay type: in vivo, murine (CDF1 mice); set-up: Med. surv. time: unit not given here
Text: (§1) The P388 tumor was maintained in ascitic form in DBA/2 mice. Experimental tumor models used CDF^1 mice implanted via the intraperitoneal or intravenous route with 1×10^6 leukemia cells on day 0 and dosed with drugs according to the indicated route and schedule. Mice were weighed on day 0 and on day 5 or 6. Weight loss of 20% or greater was an indicator of drug toxicity. Each dose group consisted of 6 mice with 10 mice in the untreated control group. The dosing schedule was Q1DX1;1. Death checks were performed daily and the median life span of each group determined. […] Experiments were terminated on or about day 30.

[2] = test system: ip implanted P388 leukemia; assay: Antitumor activity against ip implanted P388 leukemia; assay type: in vivo, murine (CDF1 mice); set-up: Med. surv. time: unit not given here
Text: as §1

[3] = test system: human ovarian carcinoma A2780 drug sensitive cell line; assay: In vitro cytotoxicity assay (XTT), A2780; assay type: cell-based; settings: Homo sapiens; A2780, 72 h; VP-16 values: mean of triplicate determinations from last 6 experiments; read-out: IC50
Method: (§2) The A2780/DDP cell line is reported to be resistant through enhanced DNA repair mechanisms and elevated GSH/GST levels. Cells were cultured in McCoy's media and 10% fetal bovine serum. When in log phase growth, 4×10^3 cells/well were plated into 96 well microtiter plates and incubated at 37° C. in […] /5% CO2 for 24 hours to allow cell attachment. Compounds were added to the top row of wells, serially diluted (4 fold dilutions) and incubated for an additional 72 hours. The number of viable cells in each well was then quantitated as previously described^2 by adding 0.05 mg/ml final concentration tetrazolium stain (XTT) in the presence of 0.005 mM final concentration phenazine methosulfate. After incubation at room temperature for 3 hours to allow color development, optical density values were measured using a Dynatech MR600 plate reader at […]. IC50 values (drug concentration inhibiting cell growth by 50%) were calculated using linear regression analysis of the optical density readings. Triplicate determinations on separate 96 well plates were done for each drug on each cell line tested.

[4] = test system: HCT116/VP35 drug resistant cell line; assay: In vitro cytotoxicity assay (XTT), HCT116/VP35; assay type: cell-based, human; settings: Homo sapiens, HCT-116; HCT116/VP35, 72 h; VP-16 values: mean of triplicate determinations from last 6 experiments; read-out: IC50
Method: as §2

[5] = test system: HCT116/VM46 drug resistant cell line; assay: In vitro cytotoxicity assay (XTT), HCT116/VM46; assay type: cell-based, human; settings: Homo sapiens, HCT-116/VM46; HCT116/VM46, 72 h; VP-16 values: mean of triplicate determinations from last 6 experiments; read-out: IC50
Method: as §2

[6] = test system: A2780/DDP drug resistant cell line; assay: In vitro cytotoxicity assay (XTT), A2780/DDP; assay type: cell-based, human
Method: as §2

[7] = test system: human colon adenocarcinoma HCT116 drug sensitive line; assay: In vitro cytotoxicity assay (XTT), HCT116; assay type: cell-based; settings: Homo sapiens, HCT-116; HCT116, 72 h; VP-16 values: mean of triplicate determinations from last 6 experiments; read-out: IC50
Method: as §2

CO[C@@]12[C@H](COC(N)=O)C3=C(C(=O)C(C)=C(N)C3=O)N1C[C@@H]1N[C@@H]12 [Mitomycin C, reference compound]
% T/C ([1]; Exp. 8305, 0.8 mg/kg/dose): 114% | Av. wgt. change ([1]; Exp. 8305, 0.8 mg/kg/dose): 0.4 g | Med. surv. time ([1]; Exp. 8305, 0.8 mg/kg/dose): 8.0 | No. of mice alive on d 5 ([1]; Exp. 8305, 0.8 mg/kg/dose): 6/6 | % T/C ([1]; Exp. 8305, 1.6 mg/kg/dose): 143% | Av. wgt. change ([1]; Exp. 8305, 1.6 mg/kg/dose): -0.3 g | Med. surv. time ([1]; Exp. 8305, 1.6 mg/kg/dose): 10.0 | No. of mice alive on d 5 ([1]; Exp. 8305, 1.6 mg/kg/dose): 6/6 | % T/C ([1]; Exp. 8305, 3.2 mg/kg/dose): 157% | Av. wgt. change ([1]; Exp. 8305, 3.2 mg/kg/dose): 0.5 g | Med. surv. time ([1]; Exp. 8305, 3.2 mg/kg/dose): 11.0 | No. of mice alive on d 5 ([1]; Exp. 8305, 3.2 mg/kg/dose): 6/6 | % T/C ([1]; Exp. 8305, 4.8 mg/kg/dose): 193% | Av. wgt. change ([1]; Exp. 8305, 4.8 mg/kg/dose): -0.8 g | Med. surv. time ([1]; Exp. 8305, 4.8 mg/kg/dose): 13.5 | No. of mice alive on d 5 ([1]; Exp. 8305, 4.8 mg/kg/dose): 6/6 | % T/C ([1]; Exp. 8328, 1.6 mg/kg/dose): 129% | Av. wgt. change ([1]; Exp. 8328, 1.6 mg/kg/dose): -0.1 g | Med. surv. time ([1]; Exp. 8328, 1.6 mg/kg/dose): 9.0 | No. of mice alive on d 5 ([1]; Exp. 8328, 1.6 mg/kg/dose): 6/6 | % T/C ([1]; Exp. 8328, 3.2 mg/kg/dose): 143% | Av. wgt. change ([1]; Exp. 8328, 3.2 mg/kg/dose): -0.7 g | Med. surv. time ([1]; Exp. 8328, 3.2 mg/kg/dose): 10.0 | No. of mice alive on d 5 ([1]; Exp. 8328, 3.2 mg/kg/dose): 6/6 | % T/C ([2]; Exp. 8305, 3.2 mg/kg/dose): 200% | Av. wgt. change ([2]; Exp. 8305, 3.2 mg/kg/dose): -0.5 g | Med. surv. time ([2]; Exp. 8305, 3.2 mg/kg/dose): 20.0 | No. of mice alive on d 5 ([2]; Exp. 8305, 3.2 mg/kg/dose): 6/6 | % T/C ([2]; Exp. 8305, 4.8 mg/kg/dose): 230% | Av. wgt. change ([2]; Exp. 8305, 4.8 mg/kg/dose): -0.7 g | Med. surv. time ([2]; Exp. 8305, 4.8 mg/kg/dose): 23.0 | No. of mice alive on d 5 ([2]; Exp. 8305, 4.8 mg/kg/dose): 6/6 | % T/C ([2]; Exp. 8328, 3.2 mg/kg/dose): 190% | Av. wgt. change ([2]; Exp. 8328, 3.2 mg/kg/dose): -0.8 g | Med. surv. time ([2]; Exp. 8328, 3.2 mg/kg/dose): 19.0 | No. of mice alive on d 5 ([2]; Exp. 8328, 3.2 mg/kg/dose): 6/6 | % T/C ([2]; Exp. 8328, 4.8 mg/kg/dose): 200% | Av. wgt. change ([2]; Exp. 8328, 4.8 mg/kg/dose): -0.5 g | Med. surv. time ([2]; Exp. 8328, 4.8 mg/kg/dose): 20.0 | No. of mice alive on d 5 ([2]; Exp. 8328, 4.8 mg/kg/dose): 6/6

COc1cc([C@@H]2c3cc4c(cc3[C@@H](O[C@@H]3O[C@@H]5CO[C@@H](C)O[C@H]5[C@H](O)[C@H]3O)[C@H]3COC(=O)[C@H]23)OCO4)cc(OC)c1O [VP-16, etoposide, reference compound]
IC50 [3]: 0.057 µg/mL (≈ 0.0968 µM) | IC50 [4]: 8.76 µg/mL (≈ 14.9 µM) | IC50 [5]: 3.25 µg/mL (≈ 5.53 µM) | fold less potent on the resistant cell line compared to the sensitive cell line ([6]; A2780/DDP vs A2780, 4320 min): about 6.6 fold | IC50 ([6]; Homo sapiens, A2780/DDP, 72 h, VP-16 values: mean of triplicate determinations from last 6 experiments, read-out: IC50): 0.379 µg/mL (≈ 0.644 µM) | IC50 [7]: 0.69 µg/mL (≈ 1.17 µM)
